Source: publication PMC10939250 (PLOS Biology, 2024)
Residues, ends and D or L forms follow the SMILES beside them.

Assays:
[1] = mouse, in vivo

Structure (SMILES): CC[C@H](C)[C@H](NC(=O)[C@H](CC(C)C)NC(=O)[C@@H](NC(=O)CNC(=O)[C@@H](NC(=O)[C@H](CC(=O)O)NC(=O)[C@H](CC(=O)O)NC(=O)[C@H](CO)NC(=O)[C@@H](NC(=O)[C@H](Cc1ccccc1)NC(=O)[C@H](CO)NC(=O)[C@H](Cc1ccc(O)cc1)NC(=O)[C@H](CCSC)NC(=O)[C@H](CCC(N)=O)NC(=O)[C@@H]1CCCN1C(=O)[C@@H]1CCCN1C(=O)[C@H](CCCNC(=N)N)NC(=O)[C@H](CCCNC(=N)N)NC(=O)[C@H](CCCNC(=N)N)NC(=O)[C@H](CCC(N)=O)NC(=O)[C@H](CCCNC(=N)N)NC(=O)[C@H](CCCNC(=N)N)NC(=O)[C@H](CCCCN)NC(=O)[C@H](CCCCN)NC(=O)[C@H](CCCNC(=N)N)NC(=O)CN)C(C)C)[C@@H](C)O)[C@@H](C)O)C(=O)N[C@H](C(=O)N[C@@H](CC(N)=O)C(=O)N[C@@H](CO)C(=O)N[C@H](C(=O)N[C@@H](CC(C)C)C(=O)O)C(C)C)C(C)C [iPep-SARS2-E] (H-GRKKRRQRRRPPQMYSFVSDDTGTLIVNSVL-OH)
- Cellular toxicity (healthy, apoptotic, dead/necrotic cells) (Jurkat cells): does not cause cellular toxicity
- IC50 (SARS-CoV-2 WA1 virus): ~400 nM
- Body weight and inflammation markers Cxcl12 and C5a [1]: did not find any significant differences
